Consider 21 compounds from PubChem BioAssay AID330 (DTP/NCI, 2004).

The assay has as its system P388 leukemia ip, CD2F1 mice, survival T/C. The assay is described as follows: NCI In Vivo Anticancer Drug Screen. Data for tumor model P388 Leukemia (intraperitoneal) in CD2F1 (CDF1) mice. The settings on record: endpoint: median survival time, higher = longer survival. In a few lines:
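Mice carrying the transplanted tumor received test compound or vehicle. Survival was recorded in each group, and the value is the treated-group measurement divided by that of the vehicle-treated control group.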

Setting [1] is: dose: 50.0 mg/kg/injection, schedule: Q01DX005 (ip), vehicle: saline with Tween-80.
Setting [2] is: dose: 100.0 mg/kg/injection, schedule: Q01DX005 (ip), vehicle: saline with Tween-80.
[3] abbreviates: dose: 200.0 mg/kg/injection, schedule: Q01DX005 (ip), vehicle: saline with Tween-80.
Where [4] appears, read: dose: 50.0 mg/kg/injection, schedule: Q04DX003 (ip), vehicle: saline with Tween-80.
The mark [5] stands for this setting: dose: 100.0 mg/kg/injection, schedule: Q04DX003 (ip), vehicle: saline with Tween-80.
Where [6] appears, read: dose: 200.0 mg/kg/injection, schedule: Q04DX003 (ip), vehicle: saline with Tween-80.
The mark [7] stands for this setting: dose: 400.0 mg/kg/injection, schedule: Q04DX003 (ip), vehicle: saline with Tween-80.

SMILES strings stand for the structures. Where “and” joins values, the source holds several entries; their conditions need not be identical. Equal values may be shown once. Toxic doses and inconclusive results are not listed. Peptide text beside a SMILES is read from it.

Take `CCCCC1(CCN(CC)c2ccccc2)C(=O)NC(=O)NC1=O`: the T/C is 101 % of control (dose: 50.0 mg/kg/injection, schedule: Q01DX005 (ip), vehicle: Klucel (hydroxypropylcellulose) (HPC)); 99 % of control (dose: 100.0 mg/kg/injection, schedule: Q01DX005 (ip), vehicle: Klucel (hydroxypropylcellulose) (HPC)); 99 % of control (dose: 200.0 mg/kg/injection, schedule: Q01DX005 (ip), vehicle: Klucel (hydroxypropylcellulose) (HPC)).

On to `COc1cc(-c2coc3cc(O)ccc3c2=O)c(O)c(OC)c1OC`, for which the T/C reads like this: (dose: 100.0 mg/kg/injection, schedule: Q01DX001 (ip), vehicle: Klucel (hydroxypropylcellulose) (HPC)) 101 % of control; (dose: 200.0 mg/kg/injection, schedule: Q01DX001 (ip), vehicle: Klucel (hydroxypropylcellulose) (HPC)) 101 % of control; (dose: 400.0 mg/kg/injection, schedule: Q01DX001 (ip), vehicle: Klucel (hydroxypropylcellulose) (HPC)) 102 % of control.

Turning to `CN(Cc1c(O)ccc2ccccc12)Cc1c(O)ccc2ccccc12`, the T/C under setting [1] is 97 % of control, the T/C under setting [2] is 109 % of control and the T/C under setting [3] is 100 % of control.

Regarding `COc1cc([C@@H]2Oc3c(OC)cc4ccc(=O)oc4c3O[C@H]2CO)ccc1O`, the T/C (dose: 200.0 mg/kg/injection, schedule: Q01DX005 (ip), vehicle: saline + alcohol) is 87 % of control and the T/C (dose: 300.0 mg/kg/injection, schedule: Q01DX005 (ip), vehicle: saline + alcohol) was 94 % of control.

Take `CC(C)=CCC(OC(=O)CC(C)(C)O)C1=CC(=O)c2c(O)ccc(O)c2C1=O` (centres undefined): the T/C is 90 % of control (dose: 18.75 mg/kg/injection, schedule: Q01DX005 (ip), vehicle: Klucel (hydroxypropylcellulose) (HPC)) and 100 % of control (dose: 37.5 mg/kg/injection, schedule: Q01DX005 (ip), vehicle: Klucel (hydroxypropylcellulose) (HPC)).

On to `CCOC(=O)Nc1cc2c(c(N)n1)N=C(c1ccccc1)C(C)N2` (centres undefined), for which the T/C runs as follows: (dose: 0.5 mg/kg/injection, schedule: Q01DX005 (ip), vehicle: saline) 123 % of control; (dose: 0.75 mg/kg/injection, schedule: Q01DX005 (ip), vehicle: saline) 121 % of control; (dose: 1.0 mg/kg/injection, schedule: Q01DX005 (ip), vehicle: saline) 171 % of control.

For the compound `CCCCCC(=O)Cc1cc(OC)cc(O)c1C(=O)Oc1cc(CCCCC)c(C(=O)O)c(OC)c1`, the T/C is, setting by setting: (dose: 0.25 mg/kg/injection, schedule: Q01DX009 (ip), vehicle: saline with Tween-80) 101 % of control; (dose: 0.5 mg/kg/injection, schedule: Q01DX009 (ip), vehicle: saline with Tween-80) 104 % of control; (dose: 1.0 mg/kg/injection, schedule: Q01DX009 (ip), vehicle: saline with Tween-80) 108 % of control.

As to `CC(C)CC(NC(=O)C(C)NC(=O)CN)C(=O)O` (stereo not drawn) (H-Gly-Ala-Leu-OH; configuration not given here), the T/C is 103 % of control under setting [1], 107 % of control under setting [2] and 99 % of control under setting [3].

`NC(=O)C1=C(C(=O)O)CCC1`: the T/C reads like this: (dose: 25.0 mg/kg/injection, schedule: Q01DX009 (ip), vehicle: distilled water + Tween-80) 99 % of control; (dose: 50.0 mg/kg/injection, schedule: Q01DX009 (ip), vehicle: distilled water + Tween-80) 100 % of control; (dose: 100.0 mg/kg/injection, schedule: Q01DX009 (ip), vehicle: distilled water + Tween-80) 98 % of control; (dose: 200.0 mg/kg/injection, schedule: Q01DX009 (ip), vehicle: distilled water + Tween-80) 96 % of control; (dose: 400.0 mg/kg/injection, schedule: Q01DX009 (ip), vehicle: distilled water + Tween-80) 92 % of control.

As for `CN(/N=C/c1ccc(N(C)C)cc1)C(=O)c1ccccc1N`, the T/C is 100 % of control (dose: 50.0 mg/kg/injection, schedule: Q01DX009 (ip), vehicle: saline with Tween-80); 93 % of control (dose: 100.0 mg/kg/injection, schedule: Q01DX009 (ip), vehicle: saline with Tween-80); 94 % of control (dose: 200.0 mg/kg/injection, schedule: Q01DX009 (ip), vehicle: saline with Tween-80).

For `COc1c(Br)cc(/C=C/[N+](=O)[O-])cc1Br`, the T/C is 124 % of control (dose: 6.25 mg/kg/injection, schedule: Q01DX009 (ip), vehicle: saline with Tween-80) and 112 % of control (dose: 12.5 mg/kg/injection, schedule: Q01DX009 (ip), vehicle: saline with Tween-80).

In the case of `O=C1C(=O)N(c2ccccc2)C(=O)N1CCN1C(=O)C(=O)N(c2ccccc2)C1=O`, the T/C is 100 % of control (dose: 3.75 mg/kg/injection, schedule: Q01DX005 (ip), vehicle: saline with Tween-80); 90 % of control (dose: 7.5 mg/kg/injection, schedule: Q01DX005 (ip), vehicle: saline with Tween-80); 95 % of control (dose: 15.0 mg/kg/injection, schedule: Q01DX005 (ip), vehicle: saline with Tween-80).

Regarding `O=C(O)c1cc2ccc(Cl)cc2[se]1`, the T/C (dose: 12.5 mg/kg/injection, schedule: Q01DX009 (ip), vehicle: saline) was 89 % of control; the T/C (dose: 25.0 mg/kg/injection, schedule: Q01DX009 (ip), vehicle: saline) was 105 % of control; the T/C (dose: 50.0 mg/kg/injection, schedule: Q01DX009 (ip), vehicle: saline) is 106 % of control and 88 % of control; the T/C (dose: 200.0 mg/kg/injection, schedule: Q01DX009 (ip), vehicle: saline) was 91 % of control.

As to `FC(F)(F)C1OC2CCCN2C2=C1CCc1ccccc12` (centres undefined), the T/C (dose: 100.0 mg/kg/injection, schedule: Q04DX002 (ip), vehicle: saline) was 108 % of control; the T/C (dose: 200.0 mg/kg/injection, schedule: Q04DX002 (ip), vehicle: saline) is 101 % of control; the T/C (dose: 400.0 mg/kg/injection, schedule: Q04DX002 (ip), vehicle: saline) was 100 % of control.

As to `S=C1N(c2ccc(Cl)cc2)C2=C(N=Nc3ccccc3Cl)C(=Nc3ccccc3S2)N1c1ccccn1`, the T/C under setting [2] is 108 % of control.

With `CN(c1ccccc1)C1C2=C(CCCC2)OC(=O)C12SCCCS2` (centres undefined), the T/C is, setting by setting: (dose: 25.0 mg/kg/injection, schedule: Q04DX003 (ip), vehicle: saline with Tween-80) 94 % of control; under setting [4], 96 % of control; under setting [5], 100 % of control and 98 % of control; (dose: 132.0 mg/kg/injection, schedule: Q04DX003 (ip), vehicle: saline with Tween-80) 98 % of control; under setting [6], 106 % of control; (dose: 300.0 mg/kg/injection, schedule: Q04DX003 (ip), vehicle: saline with Tween-80) 119 % of control. For the same compound, under setting [7], the T/C was 105 % of control and 98 % of control.

Take `COSc1ccc(OC)cc1`: the T/C is, setting by setting: (dose: 100.0 mg/kg/injection, schedule: Q04DX003 (ip), vehicle: saline) 102 % of control; (dose: 200.0 mg/kg/injection, schedule: Q04DX003 (ip), vehicle: saline) 97 % of control.

With `Nc1nc(Cl)c2nc(Cl)n(C3OC(CO)C(O)C3O)c2n1` (centres undefined), the T/C runs as follows: under setting [4], 100 % of control; under setting [5], 100 % of control; under setting [6], 100 % of control; under setting [7], 91 % of control.

Consider `C(=C\c1ccccc1)/C[P+](c1ccccc1)(c1ccccc1)c1ccccc1`, for which the T/C is 90 % of control (dose: 0.62 mg/kg/injection, schedule: Q01DX009 (ip), vehicle: saline); 100 % of control (dose: 0.63 mg/kg/injection, schedule: Q01DX009 (ip), vehicle: saline with Tween-80); 122 % of control (dose: 1.25 mg/kg/injection, schedule: Q01DX009 (ip), vehicle: saline with Tween-80); 93 % of control (dose: 1.25 mg/kg/injection, schedule: Q01DX009 (ip), vehicle: saline); 109 % of control (dose: 2.5 mg/kg/injection, schedule: Q01DX009 (ip), vehicle: saline with Tween-80); 90 % of control (dose: 2.5 mg/kg/injection, schedule: Q01DX009 (ip), vehicle: saline). Also, the T/C (dose: 5.0 mg/kg/injection, schedule: Q01DX009 (ip), vehicle: saline) was 98 % of control.

Regarding `Cn1c2c(c(=O)n(C)c1=O)CS(=O)c1ccccc1N2` (centres undefined), the T/C was 103 % of control (dose: 25.0 mg/kg/injection, schedule: Q01DX005 (ip), vehicle: suspension in saline); 96 % of control (dose: 50.0 mg/kg/injection, schedule: Q01DX005 (ip), vehicle: suspension in saline); 96 % of control (dose: 100.0 mg/kg/injection, schedule: Q01DX005 (ip), vehicle: suspension in saline); 97 % of control (dose: 200.0 mg/kg/injection, schedule: Q01DX005 (ip), vehicle: suspension in saline).

With `[Cl][Pt][Cl].[NH-]CC(=O)O`, the T/C is 171 % of control and 185 % of control (dose: 25.0 mg/kg/injection, schedule: Q01DX009 (ip), vehicle: water); 104 % of control (dose: 50.0 mg/kg/injection, schedule: Q01DX009 (ip), vehicle: water).
